Active and inactive are the calls of the source. No cut-off for these calls is given here.
Assays:
Plasmodium falciparum = assay: Inhibition of purified full-length biotinylated-Plasmodium falciparum macrophage migration inhibitory factor binding to human sCD74 at 2.5 uM after 45 mins
[1] = biological target: T1, Macrophage migration inhibitory factor (Homo sapiens) (UniProt P14174); assay: Inhibition of recombinant human macrophage migration inhibitory factor binding to human ectodomain CD74 at 0.1 to 2.5 uM
T1 sequence (whole entry): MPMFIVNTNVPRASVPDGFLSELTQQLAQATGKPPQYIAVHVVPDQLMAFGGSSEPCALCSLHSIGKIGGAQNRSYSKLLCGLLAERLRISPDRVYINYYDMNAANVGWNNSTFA

Row | inhibition (Plasmodium falciparum) | inhibition [1] | Structure (SMILES)
1 | 75% | inactive | COc1ccc(-c2cc(Oc3cc(C)cc(OC)c3)cc(C)n2)cc1
2 | 25% | inactive | Cc1cc(Oc2cccc(O)c2)cc(-c2ccccc2)n1

— ChEMBL document CHEMBL3351687, “Crystallographic and receptor binding characterization of Plasmodium falciparum macrophage migration inhibitory factor complexed to two potent inhibitors” (J Med Chem, 2014)
